Active and inactive are the calls of the source. The rule behind the calls is not given here.
How the values were obtained:
NCI-H23 [1] = test: Growth inhibition of human NCI-H23 cells after 48 hrs by SRB assay; format: functional; conditions: NCI-H23, 48 h
HCT-15 [2] = test: Growth inhibition of human HCT15 cells after 48 hrs by SRB assay; format: functional; conditions: HCT-15, 48 h
[3] = biological target: Rho-related GTP-binding protein RhoB (Homo sapiens) (UniProt P62745); test: Transactivation of RhoB (unknown origin) transfected in human HeLa cells at 5 uM measured over 10 secs by dual luciferase reporter gene assay; format: cell-based
Sequence of Rho-related GTP-binding protein RhoB (Homo sapiens) (P62745 whole entry): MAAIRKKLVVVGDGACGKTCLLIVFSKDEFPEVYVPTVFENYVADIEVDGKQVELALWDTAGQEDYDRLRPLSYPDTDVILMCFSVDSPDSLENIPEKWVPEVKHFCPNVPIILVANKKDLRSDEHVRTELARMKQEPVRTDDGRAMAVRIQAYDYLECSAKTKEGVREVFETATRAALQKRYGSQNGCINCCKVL

NUGC-3 [4] = test: Growth inhibition of human NUGC3 cells after 48 hrs by SRB assay; format: functional; conditions: NUGC-3, 48 h
ACHN [5] = test: Growth inhibition of human ACHN cells after 48 hrs by SRB assay; format: functional
MDA-MB-231 [6] = test: Growth inhibition of human MDA-MB-231 cells after 48 hrs by SRB assay; format: functional; conditions: MDA-MB-231, 48 h
PC-3 [7] = test: Growth inhibition of human PC3 cells after 48 hrs by SRB assay; format: functional; conditions: PC-3, 48 h
PC-3 [8] = test: Growth of human PC3 cells at 10 uM after 48 hrs by SRB assay; conditions: PC-3, 48 h
NUGC-3 [9] = test: Growth of human NUGC3 cells at 1 uM after 48 hrs by SRB assay; conditions: NUGC-3, 48 h
ACHN [10] = test: Growth of human ACHN cells at 10 uM after 48 hrs by SRB assay
HCT-15 [11] = test: Growth of human HCT15 cells at 3 uM after 48 hrs by SRB assay; conditions: HCT-15, 48 h
ACHN [12] = test: Growth of human ACHN cells at 0.1 uM after 48 hrs by SRB assay
ACHN [13] = test: Growth of human ACHN cells at 0.3 uM after 48 hrs by SRB assay
NUGC-3 [14] = test: Growth of human NUGC3 cells at 0.1 uM after 48 hrs by SRB assay; conditions: NUGC-3, 48 h
NUGC-3 [15] = test: Growth of human NUGC3 cells at 0.3 uM after 48 hrs by SRB assay; conditions: NUGC-3, 48 h
HCT-15 [16] = test: Growth of human HCT15 cells at 0.3 uM after 48 hrs by SRB assay; conditions: HCT-15, 48 h
NCI-H23 [17] = test: Growth of human NCI-H23 cells at 10 uM after 48 hrs by SRB assay; conditions: NCI-H23, 48 h
NCI-H23 [18] = test: Growth of human NCI-H23 cells at 0.3 uM after 48 hrs by SRB assay; conditions: NCI-H23, 48 h
MDA-MB-231 [19] = test: Growth of human MDA-MB-231 cells at 1 uM after 48 hrs by SRB assay; conditions: MDA-MB-231, 48 h
MDA-MB-231 [20] = test: Growth of human MDA-MB-231 cells at 10 uM after 48 hrs by SRB assay; conditions: MDA-MB-231, 48 h
MDA-MB-231 [21] = test: Growth of human MDA-MB-231 cells at 0.1 uM after 48 hrs by SRB assay; conditions: MDA-MB-231, 48 h
MDA-MB-231 [22] = test: Growth of human MDA-MB-231 cells at 3 uM after 48 hrs by SRB assay; values are per cent of control; conditions: MDA-MB-231, 48 h
PC-3 [23] = test: Growth inhibition of human PC3 cells at 1 uM after 48 hrs by SRB assay; values are per cent of control; conditions: PC-3, 48 h
PC-3 [24] = test: Growth inhibition of human PC3 cells at 3 uM after 48 hrs by SRB assay; values are per cent of control; conditions: PC-3, 48 h
ACHN [25] = test: Growth inhibition of human ACHN cells at 3 uM after 48 hrs by SRB assay; values are per cent of control
ACHN [26] = test: Growth inhibition of human ACHN cells at 1 uM after 48 hrs by SRB assay; values are per cent of control
NUGC-3 [27] = test: Growth inhibition of human NUGC3 cells at 3 uM after 48 hrs by SRB assay; values are per cent of control; conditions: NUGC-3, 48 h
PC-3 [28] = test: Growth inhibition of human PC3 cells at 0.1 uM after 48 hrs by SRB assay; values are per cent of control; conditions: PC-3, 48 h
PC-3 [29] = test: Growth inhibition of human PC3 cells at 0.3 uM after 48 hrs by SRB assay; values are per cent of control; conditions: PC-3, 48 h
HCT-15 [30] = test: Growth inhibition of human HCT15 cells at 1 uM after 48 hrs by SRB assay; values are per cent of control; conditions: HCT-15, 48 h
NUGC-3 [31] = test: Growth inhibition of human NUGC3 cells at 10 uM after 48 hrs by SRB assay; values are per cent of control; conditions: NUGC-3, 48 h
HCT-15 [32] = test: Growth inhibition of human HCT15 cells at 10 uM after 48 hrs by SRB assay; values are per cent of control; conditions: HCT-15, 48 h
NCI-H23 [33] = test: Growth inhibition of human NCI-H23 cells at 1 uM after 48 hrs by SRB assay; values are per cent of control; conditions: NCI-H23, 48 h
NCI-H23 [34] = test: Growth inhibition of human NCI-H23 cells at 3 uM after 48 hrs by SRB assay; values are per cent of control; conditions: NCI-H23, 48 h
HCT-15 [35] = test: Growth inhibition of human HCT15 cells at 0.1 uM after 48 hrs by SRB assay; values are per cent of control; conditions: HCT-15, 48 h
NCI-H23 [36] = test: Growth inhibition of human NCI-H23 cells at 0.1 uM after 48 hrs by SRB assay; values are per cent of control; conditions: NCI-H23, 48 h
MDA-MB-231 [37] = test: Growth inhibition of human MDA-MB-231 cells at 0.3 uM after 48 hrs by SRB assay; values are per cent of control; conditions: MDA-MB-231, 48 h

## CCCCCCCCCCCCCCS(=O)(=O)N(C)CC[N+](C)(C)C
NCI-H23 [1]
  GI50: 2040 nM
HCT-15 [2]
  GI50: 750 nM
[3]
  Activity: Active
NUGC-3 [4]
  GI50: 390 nM
ACHN [5]
  GI50: 1400 nM
MDA-MB-231 [6]
  GI50: 920 nM
PC-3 [7]
  GI50: 470 nM
PC-3 [8]
  growth, % of control at 10 µM: -14.3%
NUGC-3 [9]
  growth, % of control at 1 µM: 34.4%
ACHN [10]
  growth, % of control at 10 µM: 21.3%
HCT-15 [11]
  growth, % of control at 3 µM: 26.9%
ACHN [12]
  growth, % of control at 0.1 µM: 107%
ACHN [13]
  growth, % of control at 0.3 µM: 100%
NUGC-3 [14]
  growth, % of control at 0.1 µM: 92.4%
NUGC-3 [15]
  growth, % of control at 0.3 µM: 84.5%
HCT-15 [16]
  growth, % of control at 0.3 µM: 97.5%
NCI-H23 [17]
  growth, % of control at 10 µM: 23.7%
NCI-H23 [18]
  growth, % of control at 0.3 µM: 100%
MDA-MB-231 [19]
  growth, % of control at 1 µM: 66.3%
MDA-MB-231 [20]
  growth, % of control at 10 µM: 7.8%
MDA-MB-231 [21]
  growth, % of control at 0.1 µM: 99.1%
MDA-MB-231 [22]
  growth, % of control at 3 µM: 35.3%
PC-3 [23]
  growth, % of control at 1 µM: 45.1%
PC-3 [24]
  growth, % of control at 3 µM: 11.4%
ACHN [25]
  growth, % of control at 3 µM: 47.2%
ACHN [26]
  growth, % of control at 1 µM: 71.6%
NUGC-3 [27]
  growth, % of control at 3 µM: 18.4%
PC-3 [28]
  growth, % of control at 0.1 µM: 92%
PC-3 [29]
  growth, % of control at 0.3 µM: 93.6%
HCT-15 [30]
  growth, % of control at 1 µM: 55.6%
NUGC-3 [31]
  growth, % of control at 10 µM: 9%
HCT-15 [32]
  growth, % of control at 10 µM: 20.2%
NCI-H23 [33]
  growth, % of control at 1 µM: 86.3%
NCI-H23 [34]
  growth, % of control at 3 µM: 59.1%
HCT-15 [35]
  growth, % of control at 0.1 µM: 95.7%
NCI-H23 [36]
  growth, % of control at 0.1 µM: 94.5%
MDA-MB-231 [37]
  growth, % of control at 0.3 µM: 98.2%

## CCCCCCCCCCCCCCCCCCOP(=O)([O-])OC1CC[N+](C)(C)CC1 [PERIFOSINE]
NUGC-3 [4]
  GI50: 540 nM
PC-3 [7]
  GI50: 440 nM

## CCCCCCCCCCCCCCCCS(=O)(=O)NCC(C)(C)C[N+](C)(C)CC
NCI-H23 [1]
  GI50: 690 nM
HCT-15 [2]
  GI50: 1350 nM
NUGC-3 [4]
  GI50: 570 nM
ACHN [5]
  GI50: 2270 nM
MDA-MB-231 [6]
  GI50: 2790 nM
PC-3 [7]
  GI50: 790 nM
PC-3 [8]
  growth, % of control at 10 µM: -11.1%
NUGC-3 [9]
  growth, % of control at 1 µM: 43.8%
ACHN [10]
  growth, % of control at 10 µM: 104%
HCT-15 [11]
  growth, % of control at 3 µM: 40.2%
ACHN [12]
  growth, % of control at 0.1 µM: 108%
ACHN [13]
  growth, % of control at 0.3 µM: 100%
NUGC-3 [14]
  growth, % of control at 0.1 µM: 115%
NUGC-3 [15]
  growth, % of control at 0.3 µM: 108%
HCT-15 [16]
  growth, % of control at 0.3 µM: 138%
NCI-H23 [17]
  growth, % of control at 10 µM: -10.9%
NCI-H23 [18]
  growth, % of control at 0.3 µM: 92.1%
MDA-MB-231 [19]
  growth, % of control at 1 µM: 88.6%
MDA-MB-231 [20]
  growth, % of control at 10 µM: 27.1%
MDA-MB-231 [21]
  growth, % of control at 0.1 µM: 108%
MDA-MB-231 [22]
  growth, % of control at 3 µM: 66%
PC-3 [23]
  growth, % of control at 1 µM: 69.4%
PC-3 [24]
  growth, % of control at 3 µM: 12.9%
ACHN [25]
  growth, % of control at 3 µM: 102%
ACHN [26]
  growth, % of control at 1 µM: 99.6%
NUGC-3 [27]
  growth, % of control at 3 µM: 18.8%
PC-3 [28]
  growth, % of control at 0.1 µM: 109%
PC-3 [29]
  growth, % of control at 0.3 µM: 99.5%
HCT-15 [30]
  growth, % of control at 1 µM: 63.2%
NUGC-3 [31]
  growth, % of control at 10 µM: 0%
HCT-15 [32]
  growth, % of control at 10 µM: 21.3%
NCI-H23 [33]
  growth, % of control at 1 µM: 50.5%
NCI-H23 [34]
  growth, % of control at 3 µM: 30.4%
HCT-15 [35]
  growth, % of control at 0.1 µM: 141%
NCI-H23 [36]
  growth, % of control at 0.1 µM: 100%
MDA-MB-231 [37]
  growth, % of control at 0.3 µM: 103%
